# Assay results taken from patent US20100137313A1 (ASTRAZENECA AB, priority 2008, published 2010).
# Biological target: S. pneumoniae Topoisomerase IV ATPase (ParE) (Streptococcus pneumoniae serotype 4, UniProt Q59961)
# Assay: S. pneumoniae Topoisomerase IV ATPase inhibition
# Type: biochemical
# Conditions: values marked * are an average of two or more data points, read-out: % Inh (13 μM) of S. pneumoniae Topoisomerase IV ATPase
# Outline: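 Malachite green/ammonium molybdate phosphate detection, A650. 1.25 nM ParE, 160 μM ATP, sheared salmon sperm DNA 5 μg/ml, 20 mM Tris pH 8.0, 8.0 mM MgCl2. Controls: 2% DMSO = 0%, 20 μM EDTA = 100% inhibition; IC50 over 10 concentrations.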
# Sequence of S. pneumoniae Topoisomerase IV ATPase (ParE) (Q59961 whole entry): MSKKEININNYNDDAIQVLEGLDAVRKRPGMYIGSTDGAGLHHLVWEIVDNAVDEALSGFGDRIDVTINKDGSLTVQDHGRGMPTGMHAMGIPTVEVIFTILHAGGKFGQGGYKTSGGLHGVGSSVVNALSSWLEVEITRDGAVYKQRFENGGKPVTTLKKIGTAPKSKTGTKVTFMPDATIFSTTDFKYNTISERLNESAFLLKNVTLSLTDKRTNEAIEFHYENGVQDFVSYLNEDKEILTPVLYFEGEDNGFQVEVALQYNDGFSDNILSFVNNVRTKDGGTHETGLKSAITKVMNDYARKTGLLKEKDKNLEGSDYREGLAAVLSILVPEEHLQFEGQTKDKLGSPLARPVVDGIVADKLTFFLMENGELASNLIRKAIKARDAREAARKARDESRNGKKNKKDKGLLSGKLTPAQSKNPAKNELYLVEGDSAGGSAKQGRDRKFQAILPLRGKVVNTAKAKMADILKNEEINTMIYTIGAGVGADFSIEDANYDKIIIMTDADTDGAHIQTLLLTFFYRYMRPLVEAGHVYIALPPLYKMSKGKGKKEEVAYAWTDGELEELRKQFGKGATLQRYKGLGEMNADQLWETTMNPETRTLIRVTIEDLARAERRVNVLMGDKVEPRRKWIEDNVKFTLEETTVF
row,Structure (SMILES),inhibition at 13 µM [%]
1,"CC(=O)NC1CCN(c2nc(Nc3ccc(F)c(Cl)c3)ncc2-c2cncc(C(=O)O)c2)CC1 [Example 256, 5-[4-(4-acetamidopiperidin-1-yl)-2-[(3-chloro-4-fluorophenyl)amino]-pyrimidin-5-yl]pyridine-3-carboxylic acid]",78.8
2,"O=C(O)c1cncc(-c2cnc(Nc3ccc(F)c(Cl)c3)nc2NCCc2c[nH]cn2)c1 [Example 257, 5-(2-[(3-chloro-4-fluorophenyl)amino]-4-{[2-(1H-imidazol-4-yl)ethyl]amino}pyrimidin-5-yl)pyridine-3-carboxylic acid]",83.8
3,"O=C(O)c1cncc(-c2cnc(Nc3ccc(F)c(Cl)c3)nc2NCCc2nc3ccccc3[nH]2)c1 [Example 258, 5-(4-{[2-(1H-benzimidazol-2-yl)ethyl]amino}-2-[(3-chloro-4-fluorophenyl)amino]-pyrimidin-5-yl)pyridine-3-carboxylic acid]",88
4,"O=C(O)c1cncc(-c2cnc(Nc3ccc(F)c(Cl)c3)nc2NCCn2cccn2)c1 [Example 260, 5-(2-[(3-chloro-4-fluorophenyl)amino]-4-{[2-(1H-pyrazol-1-yl)ethyl]amino}pyrimidin-5-yl)pyridine-3-carboxylic acid]",103
5,"Cc1ncsc1CCNc1nc(Nc2ccc(F)c(Cl)c2)ncc1-c1cncc(C(=O)O)c1 [Example 262, 5-(2-[(3-chloro-4-fluorophenyl)amino]-4-{[2-(4-methyl-1,3-thiazol-5-yl)ethyl]amino}pyrimidin-5-yl)pyridine-3-carboxylic acid]",80.5
6,"CN1CCN(CCNc2nc(Nc3ccc(F)c(Cl)c3)ncc2-c2cncc(C(=O)O)c2)CC1 [Example 263, 5-(2-[(3-chloro-4-fluorophenyl)amino]-4-{[2-(4-methylpiperazin-1-yl)ethyl]amino}pyrimidin-5-yl)pyridine-3-carboxylate acid]",86.2
7,"O=C(O)/C=C/c1cccc(-c2cnc(Nc3ccc(F)c(Cl)c3)nc2NCCc2c[nH]cn2)c1 [Example 264, (2E)-3-[3-(2-[(3-chloro-4-fluorophenyl)amino]-4-{[2-(1H-imidazol-4-yl)ethyl]amino}pyrimidin-5-yl)phenyl]prop-2-enoic acid]",87.8
8,"O=C(O)/C=C/c1cccc(-c2cnc(Nc3ccc(F)c(Cl)c3)nc2NCCc2nc3ccccc3[nH]2)c1 [Example 265, (2E)-3-[3-(4-{[2-(1H-benzimidazol-2-yl)ethyl]amino}-2-[(3-chloro-4-fluorophenyl)amino]pyrimidin-5-yl)phenyl]prop-2-enoic acid]",84.9
9,"O=C(O)/C=C/c1cccc(-c2cnc(Nc3ccc(F)c(Cl)c3)nc2NCCn2ccnc2)c1 [Example 266, (2E)-3-[3-(2-[(3-chloro-4-fluorophenyl)amino]-4-{[2-(1H-imidazol-1-yl)ethyl]amino}pyrimidin-5-yl)phenyl]prop-2-enoic acid]",109
10,"O=C(O)/C=C/c1cccc(-c2cnc(Nc3ccc(F)c(Cl)c3)nc2NCCn2cccn2)c1 [Example 267, (2E)-3-[3-(2-[(3-chloro-4-fluorophenyl)amino]-4-{[2-(1H-pyrazol-1-yl)ethyl]amino}pyrimidin-5-yl)phenyl]prop-2-enoic acid]",87.3
11,"O=C(O)/C=C/c1cccc(-c2cnc(Nc3ccc(F)c(Cl)c3)nc2NCCc2cn[nH]c2)c1 [Example 268, (2E)-3-[3-(2-[(3-chloro-4-fluorophenyl)amino]-4-{[2-(1H-pyrazol-4-yl)ethyl]amino}pyrimidin-5-yl)phenyl]prop-2-enoic acid]",83
12,"Cc1ncsc1CCNc1nc(Nc2ccc(F)c(Cl)c2)ncc1-c1cccc(/C=C/C(=O)O)c1 [Example 269, (2E)-3-[3-(2-[(3-chloro-4-fluorophenyl)amino]-4-{[2-(4-methyl-1,3-thiazol-5-yl)ethyl]amino}pyrimidin-5-yl)phenyl]prop-2-enoic acid]",78
13,"CN1CCN(CCNc2nc(Nc3ccc(F)c(Cl)c3)ncc2-c2cccc(/C=C/C(=O)O)c2)CC1 [Example 270, (2E)-3-[3-(2-[(3-chloro-4-fluorophenyl)amino]-4-{[2-(4-methylpiperazin-1-yl)ethyl]amino}pyrimidin-5-yl)phenyl]prop-2-enoic acid]",87.7
14,"O=C(O)c1cncc(-c2cnc(Nc3ccc(F)c(Cl)c3)nc2NCCCc2nc3ccccc3[nH]2)c1 [Example 271, 5-(4-(3-(1H-benzo[d]imidazol-2-yl)propylamino)-2-(3-chloro-4-fluorophenylamino)-pyrimidin-5-yl)nicotinic acid]",86.6
15,"CC1CN(c2nc(Nc3ccc(F)c(Cl)c3)ncc2-c2cncc(C(=O)O)c2)CC(C)O1 (stereo not drawn) [Example 272, 5-(2-(3-chloro-4-fluorophenylamino)-4-(2,6-dimethylmorpholino)-pyrimidin-5-yl)nicotinic acid]",81.1
16,"O=C(O)c1cncc(-c2cnc(Nc3ccc(F)c(Cl)c3)nc2N2CCOCC2)c1 [Example 273, 5-(2-(3-chloro-4-fluorophenylamino)-4-morpholinopyrimidin-5-yl)nicotinic acid]",94.4
17,"Cc1[nH]ncc1CCCNc1nc(Nc2ccc(F)c(Cl)c2)ncc1-c1cncc(C(=O)O)c1 [Example 274, 5-(2-(3-chloro-4-fluorophenylamino)-4-(3-(5-methyl-1H-pyrazol-4-yl)propylamino)pyrimidin-5-yl)nicotinic acid]",88
18,"O=C(O)c1cncc(-c2cnc(Nc3ccc(F)c(Cl)c3)nc2N2CCCCC2)c1 [Example 275, 5-(2-(3-chloro-4-fluorophenylamino)-4-(piperidin-1-yl)pyrimidin-5-yl)nicotinic acid]",134
19,"CC(=O)N1CCN(c2nc(Nc3ccc(F)c(Cl)c3)ncc2-c2cncc(C(=O)O)c2)CC1 [Example 276, 5-(4-(4-acetylpiperazin-1-yl)-2-(3-chloro-4-fluorophenylamino)-pyrimidin-5-yl)nicotinic acid]",80.3
20,"COCCCNc1nc(Nc2ccc(F)c(Cl)c2)ncc1-c1cncc(C(=O)O)c1 [Example 277, 5-(2-(3-chloro-4-fluorophenylamino)-4-(3-methoxypropylamino)-pyrimidin-5-yl)nicotinic acid]",85.9
21,Cc1cnc(C(=O)NCCCNc2nc(Nc3ccc(F)c(Cl)c3)ncc2-c2cncc(C(=O)O)c2)cn1 [Example 278],77
22,"O=C(O)c1cncc(-c2cnc(Nc3ccc(F)c(Cl)c3)nc2N[C@@H]2CCOC2)c1 [Example 279, (R)-5-(2-(3-chloro-4-fluorophenylamino)-4-(tetrahydrofuran-3-ylamino)pyrimidin-5-yl)nicotinic acid]",80.4
23,"O=C(O)c1cncc(-c2cnc(Nc3ccc(F)c(Cl)c3)nc2N2CCCC2)c1 [Example 280, 5-(2-(3-chloro-4-fluorophenylamino)-4-(pyrrolidin-1-yl)pyrimidin-5-yl)nicotinic acid]",83.4
24,"Cn1cncc1CNc1nc(Nc2ccc(F)c(Cl)c2)ncc1-c1cncc(C(=O)O)c1 [Example 281, 5-(2-(3-chloro-4-fluorophenylamino)-4-((1-methyl-1H-imidazol-5-yl)methylamino)pyrimidin-5-yl)nicotinic acid]",95.8
